# Patent US20120115877A1, “Facially Amphiphilic Compounds, Compositions, And Uses Thereof In Treating Cancer” (POLYMEDIX, INC., priority 2010, published 2012)
# How the values were obtained:
# Type in all cases: cell-based, human
# Conditions in all cases: 10 μM
# [1] = test system: MOLT-4; experiment: NCI-60 screen, Leukemia
# Experimental: (§1) Several compounds were tested at single concentrations (10 μM) against 59 different human tumor cell lines, representing leukemia, melanoma and cancers of the lung, colon, brain, ovary, breast, prostate, and kidney (see, Table 3). The human tumor cell lines of the cancer screening panel were grown in RPMI 1640 medium containing 5% fetal bovine serum and 2 mM L-glutamine. For a typical screening experiment, cells were inoculated into 96 well microtiter plates in 100 μL at plating densities ranging from 5,000 to 40,000 cells/well depending on the doubling time of individual cell lines. After cell inoculation, the microtiter plates were incubated at 37° C., 5% CO2, 95% air and 100% relative humidity for 24 hours prior to addition of the compounds.
# (§2) After 24 hours, two plates of each cell line were fixed in situ with TCA, to represent a measurement of the cell population for each cell line at the time of drug addition (Tz). Compounds were solubilized in dimethyl sulfoxide at 400-fold the desired final maximum test concentration and stored frozen prior to use. At the time of drug addition, an aliquot of frozen concentrate was thawed and diluted to twice the desired final maximum test concentration with complete medium containing 50 μg/ml gentamicin. Additional four, 10-fold or ½ log serial dilutions were made to provide a total of five compound concentrations plus control. Aliquots of 100 μl of these different drug dilutions were added to the appropriate microtiter wells already containing 100 μl of medium, resulting in the required final compound concentrations.
# (§3) Following drug addition, the plates were incubated for an additional 48 hours at 37° C., 5% CO2, 95% air, and 100% relative humidity. For adherent cells, the assay was terminated by the addition of cold TCA. Cells were fixed in situ by the gentle addition of 50 μl of cold 50% (w/v) TCA (final concentration, 10% TCA) and incubated for 60 minutes at 4° C. The supernatant was discarded, and the plates were washed five times with tap water and air dried. Sulforhodamine B (SRB) solution (100 μl) at 0.4% (w/v) in 1% acetic acid was added to each well, and plates were incubated for 10 minutes at room temperature. After staining, unbound dye was removed by washing five times with 1% acetic acid and the plates were air dried. Bound stain was subsequently solubilized with 10 mM trizma base, and the absorbance was read on an automated plate reader at a wavelength of 515 nm. For suspension cells, the methodology was the same except that the assay was terminated by fixing settled cells at the bottom of the wells by gently adding 50 μl of 80% TCA (final concentration, 16% TCA). Using the seven absorbance measurements (time zero, (Tz), control growth, (C), and test growth in the presence of drug at the five concentration levels (Ti)), the percentage growth was calculated at each of the compound concentrations levels. Percentage growth inhibition was calculated as:
# (§4) [(Ti−Tz)/(C−Tz)]×100 for concentrations for which Ti>/=Tz
# (§5) [(Ti−Tz)/Tz]×100 for concentrations for which Ti<Tz.
# (§6) Three dose response parameters were calculated for each compound. Growth inhibition of 50% (GI50) was calculated from [(Ti−Tz)/(C−Tz)]×100=50, which is the compound concentration resulting in a 50% reduction in the net protein increase (as measured by SRB staining) in control cells during the compound incubation. The compound concentration resulting in total growth inhibition (TGI) was calculated from Ti=Tz. The LC50 (concentration of compound resulting in a 50% reduction in the measured protein at the end of the compound treatment as compared to that at the beginning) indicating a net loss of cells following treatment was calculated from [(Ti−Tz)/Tz]×100=−50. Values were calculated for each of these three parameters if the level of activity was reached; however, if the effect was not reached or was exceeded, the value for that parameter was expressed as greater or less than the maximum or minimum concentration tested.
# [2] = test system: HL-60(TB); experiment: NCI-60 screen, Leukemia
# Experimental: as §1, §2, §3, §4, §5, §6
# [3] = test system: SR; experiment: NCI-60 screen, Leukemia
# Experimental: as §1, §2, §3, §4, §5, §6
# [4] = test system: K-562; experiment: NCI-60 screen, Leukemia
# Experimental: as §1, §2, §3, §4, §5, §6
# [5] = test system: CCRF-CEM; experiment: NCI-60 screen, Leukemia
# Experimental: as §1, §2, §3, §4, §5, §6
# [6] = test system: BT-549; experiment: NCI-60 screen, Breast Cancer
# Experimental: as §1, §2, §3, §4, §5, §6
# [7] = test system: T-47D; experiment: NCI-60 screen, Breast Cancer
# Experimental: as §1, §2, §3, §4, §5, §6
# [8] = test system: MCF7; experiment: NCI-60 screen, Breast Cancer
# Experimental: as §1, §2, §3, §4, §5, §6
# [9] = test system: MDA-MB-468; experiment: NCI-60 screen, Breast Cancer
# Experimental: as §1, §2, §3, §4, §5, §6
# [10] = test system: NCI-H226; experiment: NCI-60 screen, Non-Small Cell Lung Cancer
# Outline: (§7)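 Single-dose 10 μM screen on human tumour lines in RPMI 1640 with 5% FBS, 48 h compound exposure at 37 °C after 24 h pre-plating. Read-out is SRB protein stain (515 nm) after TCA fixation. Percentage growth is calculated relative to time-zero and untreated controls; negative values indicate cell kill.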
# [11] = test system: HOP-62; experiment: NCI-60 screen, Non-Small Cell Lung Cancer
# Outline: as §7
# [12] = test system: HCC-2998; experiment: NCI-60 screen, Colon Cancer
# Experimental: as §1, §2, §3, §4, §5, §6
# [13] = test system: HCT-15; experiment: NCI-60 screen, Colon Cancer
# Experimental: as §1, §2, §3, §4, §5, §6
# [14] = test system: COLO 205; experiment: NCI-60 screen, Colon Cancer
# Experimental: as §1, §2, §3, §4, §5, §6
# [15] = test system: HCT-116; experiment: NCI-60 screen, Colon Cancer
# Experimental: as §1, §2, §3, §4, §5, §6
# [16] = test system: HT29; experiment: NCI-60 screen, Colon Cancer
# Experimental: as §1, §2, §3, §4, §5, §6
# [17] = test system: KM12; experiment: NCI-60 screen, Colon Cancer
# Experimental: as §1, §2, §3, §4, §5, §6
# [18] = test system: SW-620; experiment: NCI-60 screen, Colon Cancer
# Experimental: as §1, §2, §3, §4, §5, §6
# [19] = test system: LOX IMVI; experiment: NCI-60 screen, Melanoma
# Experimental: as §1, §2, §3, §4, §5, §6
# [20] = test system: SK-MEL-2; experiment: NCI-60 screen, Melanoma
# Experimental: as §1, §2, §3, §4, §5, §6
# [21] = test system: MALME-3M; experiment: NCI-60 screen, Melanoma
# Experimental: as §1, §2, §3, §4, §5, §6
# [22] = test system: SK-MEL-28; experiment: NCI-60 screen, Melanoma
# Experimental: as §1, §2, §3, §4, §5, §6
# [23] = test system: SK-MEL-5; experiment: NCI-60 screen, Melanoma
# Experimental: as §1, §2, §3, §4, §5, §6
# [24] = test system: UACC-62; experiment: NCI-60 screen, Melanoma
# Experimental: as §1, §2, §3, §4, §5, §6
# [25] = test system: UACC-257; experiment: NCI-60 screen, Melanoma
# Experimental: as §1, §2, §3, §4, §5, §6
# [26] = test system: MDA-MB-435; experiment: NCI-60 screen, Melanoma
# Experimental: as §1, §2, §3, §4, §5, §6
compound,measurement,setting,value
NCCCc1cccc(-c2ccc3oc4ccc(-c5cccc(CCCN)c5)cc4c3c2)c1 [Compound G],Percent Growth,[1],−6.401%
same,Percent Growth,[2],46.37%
same,Percent Growth,[3],−19.6%
same,Percent Growth,[4],2.899%
same,Percent Growth,[5],9.165%
same,Percent Growth,[6],101.5%
same,Percent Growth,[7],80.44%
same,Percent Growth,[8],−44.29%
same,Percent Growth,[9],−3.51%
same,Percent Growth,[10],104.4%
same,Percent Growth,[11],72.69%
same,Percent Growth,[12],81.22%
same,Percent Growth,[13],49.71%
same,Percent Growth,[14],26.37%
same,Percent Growth,[15],−37.99%
same,Percent Growth,[16],−51.14%
same,Percent Growth,[17],14.01%
same,Percent Growth,[18],−7.997%
same,Percent Growth,[19],−75.08%
same,Percent Growth,[20],72.07%
same,Percent Growth,[21],105%
same,Percent Growth,[22],102.1%
same,Percent Growth,[23],89.15%
same,Percent Growth,[24],72.92%
same,Percent Growth,[25],44.84%
same,Percent Growth,[26],62.07%
